From patent US11878049B1, “Mitapivat therapy and modulators of cytochrome P450” (Agios Pharmaceuticals, Inc., priority 2019, dated 2024)

Key:
Type in all cases: in vitro ADME
[1] = biological target: T1, breast cancer resistance protein (BCRP) (Homo sapiens, UniProt Q9UNQ0); assay: Transporter inhibition
T1 sequence (Q9UNQ0 1-655): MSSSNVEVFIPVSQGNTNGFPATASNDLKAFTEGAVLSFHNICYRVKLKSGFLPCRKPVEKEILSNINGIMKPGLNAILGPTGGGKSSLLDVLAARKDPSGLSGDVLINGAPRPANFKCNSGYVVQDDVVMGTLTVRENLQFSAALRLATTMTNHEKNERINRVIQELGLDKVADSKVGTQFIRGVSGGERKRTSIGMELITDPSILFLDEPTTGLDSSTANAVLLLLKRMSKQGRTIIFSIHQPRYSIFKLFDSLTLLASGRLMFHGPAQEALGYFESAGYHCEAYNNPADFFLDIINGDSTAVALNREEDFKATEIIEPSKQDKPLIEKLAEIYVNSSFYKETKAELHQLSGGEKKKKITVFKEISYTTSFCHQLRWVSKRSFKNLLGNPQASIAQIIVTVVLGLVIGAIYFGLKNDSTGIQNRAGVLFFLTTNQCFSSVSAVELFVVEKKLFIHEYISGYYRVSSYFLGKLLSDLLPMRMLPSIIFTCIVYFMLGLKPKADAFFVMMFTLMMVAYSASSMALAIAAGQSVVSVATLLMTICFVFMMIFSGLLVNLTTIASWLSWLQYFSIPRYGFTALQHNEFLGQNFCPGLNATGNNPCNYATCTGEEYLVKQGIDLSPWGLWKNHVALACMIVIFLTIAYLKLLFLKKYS

P-gp = P-gp (Homo sapiens, UniProt P08183); assay: Transporter inhibition
P-gp, sequence (P08183 whole entry): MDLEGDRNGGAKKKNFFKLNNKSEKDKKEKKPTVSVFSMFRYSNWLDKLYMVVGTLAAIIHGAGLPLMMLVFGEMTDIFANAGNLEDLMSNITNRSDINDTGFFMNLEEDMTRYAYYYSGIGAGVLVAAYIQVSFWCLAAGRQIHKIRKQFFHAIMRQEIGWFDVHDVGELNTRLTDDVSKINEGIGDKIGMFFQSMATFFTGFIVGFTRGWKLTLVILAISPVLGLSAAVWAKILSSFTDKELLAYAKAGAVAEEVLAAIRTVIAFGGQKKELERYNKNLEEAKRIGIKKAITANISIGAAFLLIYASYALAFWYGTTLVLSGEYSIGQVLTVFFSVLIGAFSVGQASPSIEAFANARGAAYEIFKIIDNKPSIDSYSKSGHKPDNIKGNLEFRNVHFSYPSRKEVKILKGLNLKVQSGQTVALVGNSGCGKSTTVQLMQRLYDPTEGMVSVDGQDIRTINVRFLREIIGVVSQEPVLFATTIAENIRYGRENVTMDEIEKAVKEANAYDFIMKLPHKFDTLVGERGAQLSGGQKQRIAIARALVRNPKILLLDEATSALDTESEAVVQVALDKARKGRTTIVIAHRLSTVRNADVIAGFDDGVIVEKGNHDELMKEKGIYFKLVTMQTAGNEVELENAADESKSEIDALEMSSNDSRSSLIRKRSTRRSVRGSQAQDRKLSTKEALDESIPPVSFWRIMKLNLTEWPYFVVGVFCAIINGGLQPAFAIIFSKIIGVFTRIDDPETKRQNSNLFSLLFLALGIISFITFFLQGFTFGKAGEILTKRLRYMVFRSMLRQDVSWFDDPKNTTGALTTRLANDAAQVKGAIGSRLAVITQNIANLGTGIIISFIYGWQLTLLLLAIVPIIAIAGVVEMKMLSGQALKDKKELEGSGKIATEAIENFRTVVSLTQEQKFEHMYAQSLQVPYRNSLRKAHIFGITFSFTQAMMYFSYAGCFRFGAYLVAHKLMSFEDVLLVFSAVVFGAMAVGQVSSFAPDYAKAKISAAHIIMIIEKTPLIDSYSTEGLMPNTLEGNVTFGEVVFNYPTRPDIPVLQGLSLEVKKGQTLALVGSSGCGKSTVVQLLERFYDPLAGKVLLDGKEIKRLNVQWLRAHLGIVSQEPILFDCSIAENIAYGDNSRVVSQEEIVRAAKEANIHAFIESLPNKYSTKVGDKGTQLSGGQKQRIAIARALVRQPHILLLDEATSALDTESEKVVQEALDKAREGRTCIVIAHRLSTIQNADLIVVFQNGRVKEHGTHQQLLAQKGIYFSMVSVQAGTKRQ

CYP1A2 = biological target: T2, CYP1A2 (Homo sapiens, UniProt P05177); assay: CYP-enzyme phenotyping using human liver microsomes and recombinant CYP enzymes
T2 construct: CYP-enzyme phenotyping using human liver microsomes and recombinant CYP enzymes; from tissue; host or cells: human liver microsomes
T2 sequence (P05177 whole entry): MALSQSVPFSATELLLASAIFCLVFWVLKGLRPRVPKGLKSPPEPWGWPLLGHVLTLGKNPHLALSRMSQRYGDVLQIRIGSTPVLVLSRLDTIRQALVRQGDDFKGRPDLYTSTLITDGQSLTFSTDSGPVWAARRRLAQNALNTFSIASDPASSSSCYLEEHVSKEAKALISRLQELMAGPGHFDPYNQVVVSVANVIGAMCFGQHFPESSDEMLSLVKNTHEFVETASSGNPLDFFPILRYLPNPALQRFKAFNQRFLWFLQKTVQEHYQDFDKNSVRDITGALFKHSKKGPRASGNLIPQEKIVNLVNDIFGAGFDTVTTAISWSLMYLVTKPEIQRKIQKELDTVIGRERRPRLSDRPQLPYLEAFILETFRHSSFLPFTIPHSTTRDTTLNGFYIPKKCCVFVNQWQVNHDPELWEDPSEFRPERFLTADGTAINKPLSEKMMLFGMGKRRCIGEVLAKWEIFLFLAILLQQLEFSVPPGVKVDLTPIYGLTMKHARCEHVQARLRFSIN

CYP2C8 = CYP2C8 (Homo sapiens, UniProt P10632); assay: as above; design: CYP-enzyme phenotyping using human liver microsomes and recombinant CYP enzymes; from tissue; host or cells: human liver microsomes
CYP2C8, sequence (P10632 whole entry): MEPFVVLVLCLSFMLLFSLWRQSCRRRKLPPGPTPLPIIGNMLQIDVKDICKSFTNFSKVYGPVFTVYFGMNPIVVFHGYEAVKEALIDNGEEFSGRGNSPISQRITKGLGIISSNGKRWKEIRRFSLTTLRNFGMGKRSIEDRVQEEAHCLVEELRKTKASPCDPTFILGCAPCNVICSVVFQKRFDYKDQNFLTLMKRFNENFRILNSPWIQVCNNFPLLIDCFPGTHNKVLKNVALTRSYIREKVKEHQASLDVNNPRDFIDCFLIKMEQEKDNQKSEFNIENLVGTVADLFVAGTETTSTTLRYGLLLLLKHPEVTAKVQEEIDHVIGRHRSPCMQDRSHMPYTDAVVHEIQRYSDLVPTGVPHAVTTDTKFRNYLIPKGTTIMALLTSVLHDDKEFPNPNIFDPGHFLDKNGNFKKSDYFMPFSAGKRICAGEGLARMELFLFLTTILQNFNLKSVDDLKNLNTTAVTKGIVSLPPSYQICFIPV

| SMILES | Inhibitor for BCRP [1] | Inhibitor for P-gp (P-gp) | Contribution of CYP1A2 to metabolism (CYP1A2) | Contribution of CYP2C8 to metabolism (CYP2C8) |
| --- | --- | --- | --- | --- |
| O=C(c1ccc(NS(=O)(=O)c2cccc3cccnc23)cc1)N1CCNCC1 [Metabolite] | not an inhibitor | not an inhibitor | – | – |
| O=C(c1ccc(NS(=O)(=O)c2cccc3cccnc23)cc1)N1CCN(CC2CC2)CC1 [Mitapivat, N-(4-(4-(cyclopropylmethyl)piperazine-1-carbonyl)phenyl)quinoline-8-sulfonamide] | – | – | minor contributions | minor contributions |
